Measurements reported in patent US10544103B2, “5-HT2 antagonists” (ANAMAR AB, priority 2015, dated 2020).

Target: T1, 5-HT2B receptor (Homo sapiens, UniProt P41595)
T1 construct: host or cells: CHO-K1
Test: 5-HT2B receptor binding, 3H-LSD ligand displacement assay
Details: for inhibition at 0.01 µM: 0.01 uM compound; for inhibition at 0.1 µM: 0.1 uM compound; for inhibition at 1 µM: 1 uM compound; for inhibition at 10 µM: 10 uM compound; for inhibition at 0.001 µM: 0.001 uM compound
Protocol: 5-HT2B receptor binding (performed at Eurofins Panlabs Taiwan, Ltd.) to human receptor protein expressed in CHO-K1 cells was determined in a ligand displacement assay using ^3H-lysergic acid diethylamide (LSD) as radioligand and ketanserine as a standard reference compound. Data is presented as % displacement of radioligand at indicated compound concentrations, see Table 1 and Table 2.

T1 sequence (P41595 whole entry): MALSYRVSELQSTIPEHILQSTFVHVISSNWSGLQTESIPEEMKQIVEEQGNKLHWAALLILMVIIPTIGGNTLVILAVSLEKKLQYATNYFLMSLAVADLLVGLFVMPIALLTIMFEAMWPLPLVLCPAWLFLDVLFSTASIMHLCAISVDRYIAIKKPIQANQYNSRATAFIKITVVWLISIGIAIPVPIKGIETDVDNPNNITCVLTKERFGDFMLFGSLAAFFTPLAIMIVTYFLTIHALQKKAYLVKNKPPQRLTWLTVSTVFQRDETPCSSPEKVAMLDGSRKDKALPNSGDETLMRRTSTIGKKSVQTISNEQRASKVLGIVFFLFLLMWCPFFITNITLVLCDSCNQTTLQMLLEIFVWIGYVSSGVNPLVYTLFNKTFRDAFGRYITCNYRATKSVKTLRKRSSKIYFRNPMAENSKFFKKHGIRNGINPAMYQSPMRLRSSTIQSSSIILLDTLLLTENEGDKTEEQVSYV

| Compound | inhibition at 0.01 µM [%] | inhibition at 0.1 µM [%] | inhibition at 1 µM [%] | inhibition at 10 µM [%] | inhibition at 0.001 µM [%] |
| --- | --- | --- | --- | --- | --- |
| C[C@H]1CN(C(=N)N)N=C1c1ccccc1O (single isomer, unassigned) [Example 37] | -1 | 35 | 72 | 99 | – |
| C[C@H]1CN(C(=N)N)N=C1c1cccc(Cl)c1O (single isomer, unassigned) [Example 72, (S)*-3-(3-chloro-2-hydroxyphenyl)-4-methyl-4,5-dihydro-1H-pyrazole-1-carboximidamide] | 21 | 69 | – | – | -1 |
| C[C@H]1CN(C(=N)NCc2ccccc2)N=C1c1cccc(Cl)c1O (single isomer, unassigned) [Example 77, (S)*—N-Benzyl-3-(3-chloro-2-hydroxyphenyl)-4-methyl-4,5-dihydro-1H-pyrazole-1-carboximidamide] | 28 | 88 | – | – | 2 |
| N=C(N)N1CCC(c2ccccc2Br)=N1 [Example 4, 3-(2-Bromophenyl)-4,5-dihydro-1H-pyrazole-1-carboximidamide] | – | – | 89 | 101 | – |
| N=C(N)N1CCC(c2ccccc2Cl)=N1 [Example 5, 3-(2-Chlorophenyl)-4,5-dihydro-1H-pyrazole-1-carboximidamide] | – | – | 95 | 100 | – |
| Cc1ccccc1C1=NN(C(=N)N)CC1 [Example 6, 3-(2-Methylphenyl)-4,5-dihydro-1H-pyrazole-1-carboximidamide] | – | – | 89 | 99 | – |
| N=C(N)N1CCC(c2cc(F)ccc2F)=N1 [Example 7, 3-(2,5-Difluorophenyl)-4,5-dihydro-1H-pyrazole-1-carboximidamide] | – | – | 47 | 94 | – |
| CC(C)c1ccccc1C1=NN(C(=N)N)CC1 [Example 8, 3-(2-Isopropylphenyl)-4,5-dihydro-1H-pyrazole-1-carboximidamide] | – | 80 | 95 | – | – |
| N=C(N)N1CCC(c2cccc3ccsc23)=N1 [Example 10, 3-(Benzo[b]thiophen-7-yl)-4,5-dihydro-1H-pyrazole-1-carboximidamide] | – | 75 | 95 | – | – |
| N=C(N)N1CCC(c2ccccc2F)=N1 [Example 11, 3-(2-Fluorophenyl)-4,5-dihydro-1H-pyrazole-1-carboximidamide] | – | 10 | 53 | – | – |
| N=C(N)N1CCC(c2ccc3ccccc3c2)=N1 [Example 12, 3-(Naphthalen-2-yl)-4,5-dihydro-1H-pyrazole-1-carboximidamide, reference compound] | – | 18 | 76 | – | – |
| N=C(N)N1CCC(c2ccccc2C(F)(F)F)=N1 [Example 13, 3-(2-(Trifluoromethyl)phenyl)-4,5-dihydro-1H-pyrazole-1-carboximidamide] | – | 34 | 82 | – | – |
| N=C(N)N1CCC(c2coc3ccccc23)=N1 [Example 14, 3-(Benzofuran-3-yl)-4,5-dihydro-1H-pyrazole-1-carboximidamide] | – | 40 | 88 | – | – |
| COc1ccc(C2=NN(C(=N)N)CC2)cc1 [Example 15, 3-(4-Methoxyphenyl)-4,5-dihydro-1H-pyrazole-1-carboximidamide, reference compound] | – | – | 13 | 56 | – |
| COc1ccc(C2=NN(C(=N)N)CC2)cc1OC [Example 16, 3-(3,4-Dimethoxyphenyl)-4,5-dihydro-1H-pyrazole-1-carboximidamide, reference compound] | – | – | 6 | 42 | – |
| COc1ccccc1C1=NN(C(=N)N)CC1C (centres unmarked) [Example 18, 3-(2-Methoxyphenyl)-4-methyl-4,5-dihydro-1H-pyrazole-1-carboximidamide] | – | – | 89 | 101 | – |
| CNC(=N)N1CCC(c2ccccc2Cl)=N1 [Example 19, 3-(2-Chlorophenyl)-N-methyl-4,5-dihydro-1H-pyrazole-1-carboximidamide] | – | 34 | 79 | – | – |
